Source: patent US20060240402A1, “Marine invertebrate gametes and embryos as an assay system for therapeutic screening” (priority 2005, published 2006)

Legend:
Spisula oocytes = test: Whole egg germinal vesicle breakdown (GVBD) and spindle assembly assay; assay type: cell-based, Spisula solidissima
Method: Oocytes are prepared as generally described in Allen R D. (1953) Biol Bull. 105:213-239; Palazzo, R. E., Vaisberg, E., Cole, R. W. and Rieder, C. L. (1992) Science. 256: 219-221; Vogel, J. M., Stearns, T., Rieder, C. L. and Palazzo, R. E. (1997) J. Cell Biol. 137: 193-202; and Schnackenberg, B. J. and Palazzo, R. E. (1999) Biology of the Cell. 91: 429-438.
(§1) Briefly, adult Spisula or Mulinia are collected from the Atlantic Ocean, often by the Marine Resources Department of the Marine Biological Laboratory (Woods Hole, Mass.) or from commercial fisherman and maintained in flow-through sea water tanks at ˜13° C. containing artificial sea water (ASW). Oocytes are then dissected from ripe ovaries, passed through cheese cloth, and washed in sea water by three cycles of suspension/sedimentation. Oocytes are then activated by treatment with KCl for 4 min, and lysates are prepared as previously described by Palazzo et al. (Palazzo, R. E., J. B. Brawley, and L. I. Rebhun (1988). Zool. Sci. (Tokyo). 5: 603-611).
(§2) Aster formation in oocytes, embryos, and lysates is assessed with polarized light microscopy by adding 3% hexylene glycol to small aliquots and warming to 24° C. (Palazzo, R. E., J. B. Brawley, and L. I. Rebhun (1988). Zool. Sci. (Tokyo). 5: 603-611). The remaining lysate is aliquoted, snap frozen, and stored at −80° C. Frozen lysates retain the ability to assemble asters after years of storage.
In one embodiment of the invention, oocyte activation to induce GVBD, aster formation, spindle assembly, and cleavage can be induced by 5-hydroxy triptamine (5-HT, serotonin), fertilization, or depolarization of the cell plasma membrane by treatment with KCl when cells are incubated in sea water. This requires the entry of calcium into the cell after treatment with these agents. Thus, the GVBD, or events subsequent to GVBD, can be used as indicators for hormone-receptor interactions (serotonin), effect of calcium channel blockers (resulting in a block of GVBD and subsequent events after treatment with KCL, 5HT or sperm), or agents that block fertilization generally. Therefore the present invention can be used not only to screen for antimitotic agents but also putative neuromodulators (serotonin inhibitors and the like), cardiomodulators, vasoactive agents (calcium channel blockers) and anti-fertility agents.
Using the whole egg assay described above, Spisula oocytes were treated with 0.25 μM HMN-176 or 0.001% DMSO and activated to undergo germinal vesicle (nucleus) breakdown (GVBD), and aster and spindle formation.

human tumor cell lines = conditions: several human tumor cell lines; cited from earlier work
[1] = tested on: centrosomes in Spisula lysates; test: Lysate aster formation assay; assay type: biochemical, Spisula solidissima; conditions: 0.025 uM, 0.25 uM or 2.5 uM
Method: as §1, §2
Using the lysate aster formation assay described above, Spisula lysates were warmed to room temperature with lysates containing varying amounts of HMN-176 (0.025 uM, 0.25 uM or 2.5 uM) or DMSO (0.0001%, 0.001%, or 0.01%) as control. […]

clam tubulin = test: Tubulin turbidity assay, clam tubulin; assay type: biochemical, Spisula solidissima; conditions: 0.025 uM, 0.25 uM and 2.5 uM; 30° C., 0.7 mg/mL of tubulin
Method: Three-cycled tubulin can also be prepared from Spisula oocyte lysates using a modification of the procedure described in Suprenant, K. A. (1989) Exp. Cell Res. 184: 167-180. Lysates are thawed and diluted with 0.8 vol of dilution buffer (100 mM potassium-Pipes, pH 7.2, 4 mM EGTA, 1 mM MgSO4, 1 mM DTT) containing 1 mM GTP, […] leupeptin, and 0.2 mM phenylmethylsulfonyl fluoride. Diluted lysate is then gently resuspended on ice and centrifuged (39,000 g/2° C./30 min) using a rotor (model JA20; Beckman Instruments Fullerton, Calif.) to clarify. Supernatants are collected and three-cycled tubulin prepared as previously described (Suprenant, K. A. (1989) Exp. Cell Res. 184: 167-180).
(§3) The tubulin polymerization assay used herein is performed according to the teachings of Vogel, J. M., Steams, T., Rieder, C. L. and Palazzo, R. E. (1997) J. Cell Biol. 137: 193-202 and Suprenant K A, Marsh J C. (1987) J Cell Sci. 87:71-84, each of which is incorported herein by reference in its entirety.
(§4) Sea urchin and clam tubulin turbidity assays were performed at 30° C. and 0.7 mg/mL of tubulin. Doses of 0.025 uM, 0.25 uM and 2.5 uM of HMN-176 were compared to DMSO treatment, all of which were compared to untreated control.

[2] = tested on: Isolated centrosomes reconstituted with sea urchin tubulin; test: Isolated centrosome assay (aster formation in defined media); assay type: biochemical, Spisula solidissima; conditions: 0.25 uM, 0.75 mg/mL sea urchin tubulin, time course of 25 minutes
Description: Centrosomes are isolated and prepared according to the methods of Vogel et al. (Vogel, J. M., Stearns, T., Rieder, C. L. and Palazzo, R. E. (1997) J. Cell Biol. 137: 193-202). Briefly, centrosomes are isolated from lysates by sucrose density-gradient centrifugation using a modification of the procedures known in the art for isolation of mammalian centrosomes. As such, lysates are thawed on ice, and aliquots are removed and tested for aster formation using hexylene glycol and polarized light microscopy as previously described. For each preparative gradient, 2-3 ml of crude lysate (˜9-18×10^6 centrosomes) are diluted with 0.60 vol of aster buffer (Aster Buffer: 20 mM sodium-Pipes, pH 7.2, 100 mM NaCl, 5.0 mM MgSO4), resuspended, and centrifuged (5,500 g/4° C./10 min) using a rotor (model JS 13.1; Beckman Instruments). […] Fractions (1.0 ml) are collected at 4° C. by bottom puncture of centrifuge tubes, and sucrose density is determined with the use of a hand-held refractometer.
Fractions are tested for centrosome content based on their ability to organize microtubules in the form of radial astral arrays when reconstituted with tubulin media. Thus, 10 μl aliquots from each fraction are diluted into 40 μl of tubulin media (0.3-0.7 mg/ml three-cycled sea urchin tubulin in RAB buffer containing 2 mM GTP) and incubated for 10 min at ambient temperature, and asters are counted using a hemacytometer viewed with a polarized light microscope. […]
Centrosome assembly and function is crucial for the coordinated polymerization of microtubules that leads to spindle assembly and chromosome segregation during mitosis. […] The isolated centrosome assay is used to (1) induce the synchronous assembly of centrosomes in hundreds of grams of live Spisula oocytes or large quantities of oocyte lysates and is performed according to the methods disclosed by Palazzo, R. E., Vaisberg, E., Cole, R. W. and Rieder, C. […]

sea urchin tubulin = test: Tubulin polymerization (turbidity) assay, sea urchin tubulin; assay type: biochemical, Strongylocentrotus purpuratus; conditions: 0.025 uM, 0.25 uM and 2.5 uM
Method: Sea urchin (Strongylocentrotus purpuratus) microtubules are prepared by three cycles of polymerization/depolymerization as previously described (Suprenant, K. A., and J. C. Marsh (1987) J. Cell Sci. 87: 71-84). Aliquots of ˜0.5-2.0 mg/ml protein are stored in 100 mM potassium-Pipes, pH 6.9, 1 mM EGTA, 5 mM MgSO4, 2 mM GTP (reassembly buffer) at −80° C. Three-cycled tubulin is diluted with reassembly buffer to 0.7 mg/ml for all functional assays unless otherwise stated.
as §3
The effect of HMN-176 on sea urchin tubulin (0.75 mg/mL of S. purpuratus tubulin at 26° C.) polymerization in defined media was examined according to the methods described above. Sea urchin tubulin was isolated from Strongylocentrotus purpuratus oocytes by three cycles of microtubule polymerization and depolymerization. After the third cycle, microtubules were depolymerized, centrifuged to clarify, and the resulting supernatant adjusted to a concentration of 0.75 mg/ml protein. Samples were aliquoted and stored at −80° C.
The polymerization assay was used to test the effects of varying concentrations of HMN-176 (0.025 uM, 0.25 uM and 2.5 uM) along with varying amounts of DMSO for control (0.0001%, 0.001% and […]), respectively. Polymerization of untreated tubulin was also measured.
as §4

CFPAC cells = test: Mammalian spindle phenotypes and time in mitosis in CFPAC cells; assay type: cell-based, human
Method: To determine the effect of HMN-176 on mammalian cell lines, the transformed human cell line, CFPAC, was used. CFPAC cells were derived from a ductal adenocarcinoma (liver metastasis) from a patient with cystic fibrosis (ATCC #CRL-1918). CFPAC cellswere treated for 2 hours with 0.5 uM DMSO or 0.5 uM HMN-176 (n=79). Cells were studied for progression through mitosis and cell cleavage using video microscopy, or prepared for immunofluorescence analysis with antibodies to visualize beta tubulin or treated with Hoechst 33342 (Sigma Aldrich, St. Louis, Mo. to visualize DNA and chromosomes.

mouse xenograft models = conditions: cited from earlier work
[3] = marine invertebrate gamete system, concentration not given
[4] = 0.75 mg/mL S. purpuratus tubulin at 26° C.
[5] = 0.5 uM treatment for 2 hours, n = 79

COc1cc2c(c(OC)c1OC)-c1ccc(OC)c(=O)cc1[C@@H](NC(C)=O)CC2 [Colchicine]
Effect on GVBD (Spisula oocytes; [3]): does not affect GVBD | Effect on spindle assembly (Spisula oocytes; [3]): inhibits spindle assembly | Cytotoxicity (human tumor cell lines): cytotoxic

COc1ccc(S(=O)(=O)Nc2ccccc2/C=C/c2cc[n+]([O-])cc2)cc1 [HMN-176, (E)-4-{[2-N-[4-methoxybenzenesulfonyl]amino]stillbazole}1-oxide]
Status of centrosomes (immunofluorescence alpha-/gamma-tubulin) ([1]; lysates): centrosomes remained intact in all samples | Effect on aster formation in lysates ([1]; lysates warmed to room temperature): blocked aster formation in the lysate aster formation assay in a dose dependent manner | Effect on clam tubulin turbidity (clam tubulin): Very little to no effect | Effect on germinal vesicle breakdown (GVBD) (Spisula oocytes; 0.25 μM, activated Spisula oocytes, observed at 9-26 minutes): not affecting GVBD | Effect on spindle assembly in oocytes (Spisula oocytes; 0.25 μM, activated Spisula oocytes, observed at 15 and 26 minutes): inhibit spindle assembly | Aster formation by isolated centrosomes in defined media [2]: no asters were formed | Background microtubule polymerization (not centrosome-associated) [2]: microtubule polymerization was observed in the background | Status of centrosomes (gamma-tubulin staining) [2]: Centrosomes remained intact in all samples | Effect on polymerization of tubulin (sea urchin tubulin; [4]): only minor effect on the polymerization of tubulin | Effect on rate of microtubule polymerization (sea urchin tubulin; [4]): may slightly lower the rate of microtubule polymerization | Effect on ultimate plateau of tubulin polymerization (turbidity) (sea urchin tubulin; 0.75 mg/mL S. purpuratus tubulin at 26° C., by 25 minutes): does not affect the ultimate plateau | Effect on sea urchin tubulin turbidity (sea urchin tubulin; 30° C., 0.7 mg/mL of tubulin): Very little to no effect | Spindle types observed (CFPAC cells; 0.5 uM for 2 hours): multipolar spindles with disorganized chromosomes | Spindle type: Bipolar, number of cells (CFPAC cells; [5]): 13 | Spindle type: Bipolar, percent of cells (CFPAC cells; [5]): 16% | Spindle type: Monopolar, number of cells (CFPAC cells; [5]): Monopolar 0 (0%) | Spindle type: Monopolar, percent of cells (CFPAC cells; [5]): Monopolar 0 (0%) | Spindle type: Multipolar, number of cells (CFPAC cells; [5]): 66 | Spindle type: Multipolar, percent of cells (CFPAC cells; [5]): 84% | Time that CFPAC cells were in mitosis (CFPAC cells; 0.5 uM, video microscopy): 147 ± 55 min

COc1ccc(S(=O)(=O)N(C(C)=O)c2ccccc2/C=C/c2cc[n+]([O-])cc2)cc1 [HMN-214, (E)-4-{2-[2-(N-acetyl-N-[4-methoxybenzenesulfonyl]amino]stillbazole]}1-oxide]
Antitumor activity (mouse xenograft models): potent antitumor activity
